Data from ChEMBL document CHEMBL1201862, “PubChem BioAssay data set” (2004).
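Method: 48-hour compound exposure of cells in 96-well plates, five concentrations, linear interpolation of endpoints. GI50 is the concentration that inhibits growth by half.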 Calls of active or inactive are those of the source. Cut-off read from the data, not from the text of the source: active = GI50 up to about 1.1 µM and inactive = higher.

Tests used:
Experiment in all cases: NCI-60 cell line screen, 48 h
SF-295 = system: SF-295
SNB-19 = system: SNB-19
MOLT-4 = system: MOLT-4
LOX IMVI = system: LOX IMVI
HCT-15 = system: HCT-15
MDA-N = system: MDA-N
RXF 393 = system: RXF 393
NCI/ADR-RES = system: NCI/ADR-RES
OVCAR-5 = system: OVCAR-5
KM12 = system: KM12
SR = system: SR
IGROV-1 = system: IGROV-1
COLO 205 = system: COLO 205
HOP-92 = system: HOP-92
CCRF-CEM = system: CCRF-CEM
SN12C = system: SN12C
786-0 = system: 786-0
SNB-75 = system: SNB-75
TK-10 = system: TK-10
Hs-578T = system: Hs-578T

Compound	GI50 (SF-295)	GI50 (SNB-19)	GI50 (MOLT-4)	GI50 (LOX IMVI)	GI50 (HCT-15) [µM]	GI50 (MDA-N)	GI50 (RXF 393)	GI50 (NCI/ADR-RES)	GI50 (OVCAR-5)	GI50 (KM12)	GI50 (SR)	GI50 (IGROV-1)	GI50 (COLO 205)	GI50 (HOP-92)	GI50 (CCRF-CEM)	GI50 (SN12C)	GI50 (786-0)	GI50 (SNB-75)	GI50 (TK-10)	GI50 (Hs-578T)
CSc1nc2c(c(=O)n1C)N=C(c1ccccc1)[C@H](C(CC(=O)c1ccccc1)c1ccccc1)C(c1ccccc1)N2 (some centres undefined)	> 100 µM (inactive)	> 100 µM (inactive)	5.94 µM (inactive)	> 100 µM (inactive)	> 100	> 100 µM (inactive)	65.6 µM (inactive)	76.6 µM (inactive)	> 100 µM (inactive)	14.7 µM (inactive)	> 100 µM (inactive)	> 100 µM (inactive)	> 100 µM (inactive)	> 100 µM (inactive)	44.8 µM (inactive)	> 100 µM (inactive)	> 100 µM (inactive)	3.12 µM (inactive)		
CC1OC(=O)c2ccccc2NC1=O (centres undefined)	> 100 µM (inactive)	> 100 µM (inactive)	> 100 µM (inactive)	> 100 µM (inactive)	> 100		> 100 µM (inactive)	> 100 µM (inactive)	> 100 µM (inactive)	> 100 µM (inactive)	> 100 µM (inactive)	> 100 µM (inactive)	> 100 µM (inactive)	> 100 µM (inactive)	> 100 µM (inactive)	> 100 µM (inactive)	> 100 µM (inactive)	> 100 µM (inactive)	> 100 µM (inactive)	> 100 µM (inactive)
Cc1[nH]c2ncn(N)c(=N)c2c1Cc1ccccc1	> 100 µM (inactive)	> 100 µM (inactive)	> 100 µM (inactive)	67.1 µM (inactive)	> 100	35.3 µM (inactive)		82 µM (inactive)	> 100 µM (inactive)	> 100 µM (inactive)	> 100 µM (inactive)	80.4 µM (inactive)	> 100 µM (inactive)	6.7 µM (inactive)	> 100 µM (inactive)	> 100 µM (inactive)	> 100 µM (inactive)	42.7 µM (inactive)	> 100 µM (inactive)	
COc1cc([C@@H]2c3cc4c(cc3C[C@@H]3COC(=O)C32)OCO4)cc(OC)c1O (some centres undefined)	0.0208 µM (active)		0.0271 µM (active)	0.0426 µM (active)	0.0294	0.0113 µM (active)	0.0165 µM (active)	0.0187 µM (active)		0.0277 µM (active)	0.011 µM (active)	0.0254 µM (active)	0.0306 µM (active)	0.0957 µM (active)	0.0228 µM (active)	0.143 µM (active)	0.0299 µM (active)		0.039 µM (active)	
CC1(C)C(=O)/C=C\C(=O)C(C)(C)C(=O)/C=C\C(=O)C(C)(C)C(=O)/C=C\C(=O)C(C)(C)C(=O)/C=C\C1=O	23.6 µM (inactive)	52.5 µM (inactive)	3.53 µM (inactive)	25.2 µM (inactive)	20.4	41.8 µM (inactive)	17.9 µM (inactive)		41.1 µM (inactive)	40 µM (inactive)	3.94 µM (inactive)	34.4 µM (inactive)	15.5 µM (inactive)	12.7 µM (inactive)	3.51 µM (inactive)	24.3 µM (inactive)	24.1 µM (inactive)	> 60 µM (inactive)	> 55.2 µM (inactive)	> 100 µM (inactive)
C=C1[C@@H]([C@@]2(C)C=CC(=O)C(C)(C)[C@@H]2CC(=O)OC)CC[C@@]2(C)[C@H](c3ccoc3)OC(=O)[C@H]3O[C@]132 [ANDIROBIN]	87.5 µM (inactive)	> 100 µM (inactive)	83.6 µM (inactive)	> 100 µM (inactive)	> 100	> 100 µM (inactive)		> 100 µM (inactive)	> 100 µM (inactive)	> 100 µM (inactive)		> 100 µM (inactive)	93.1 µM (inactive)	> 100 µM (inactive)	> 100 µM (inactive)	> 100 µM (inactive)	> 100 µM (inactive)	46.2 µM (inactive)	> 100 µM (inactive)	> 100 µM (inactive)
Cc1ccc(C2c3c(n(C)c(=O)n(C)c3=O)OC(N(C)C)(N(C)C)C2(F)F)cc1 (centres undefined)	> 100 µM (inactive)	> 100 µM (inactive)	> 100 µM (inactive)	> 100 µM (inactive)	> 100		> 100 µM (inactive)	> 100 µM (inactive)	> 100 µM (inactive)	> 100 µM (inactive)			> 100 µM (inactive)	> 100 µM (inactive)	> 100 µM (inactive)		> 100 µM (inactive)	> 100 µM (inactive)	> 100 µM (inactive)	
COc1cc(OC)cc(Oc2nc3c(N)cc(C(F)(F)F)cc3nc2-c2ccccc2)c1	49.5 µM (inactive)	95.7 µM (inactive)	9.27 µM (inactive)	20.4 µM (inactive)	18.1		21.1 µM (inactive)	52.6 µM (inactive)		13.8 µM (inactive)	11.1 µM (inactive)	21.8 µM (inactive)	20.1 µM (inactive)	> 100 µM (inactive)	12.8 µM (inactive)		55.1 µM (inactive)	47.9 µM (inactive)	60.5 µM (inactive)	80.4 µM (inactive)
COc1ccc(/N=C2\S/C(=N\C(=N\c3ccccc3)SCc3ccccc3)N(c3ccccc3)\C2=N/c2ccc(OC)cc2)cc1		> 100 µM (inactive)	> 100 µM (inactive)		> 100	> 100 µM (inactive)	> 100 µM (inactive)			> 100 µM (inactive)	> 100 µM (inactive)	> 100 µM (inactive)	> 100 µM (inactive)	> 100 µM (inactive)	> 100 µM (inactive)	> 100 µM (inactive)	> 100 µM (inactive)	> 100 µM (inactive)	> 100 µM (inactive)	> 100 µM (inactive)
Oc1[nH]c(Nc2cccc(Cl)c2)nc2ncnc1-2	> 100 µM (inactive)	> 100 µM (inactive)	38.6 µM (inactive)	80.7 µM (inactive)	> 100		> 100 µM (inactive)	> 100 µM (inactive)	> 100 µM (inactive)	> 100 µM (inactive)	> 100 µM (inactive)	80.4 µM (inactive)	> 100 µM (inactive)	83 µM (inactive)	71.4 µM (inactive)	> 100 µM (inactive)	> 100 µM (inactive)	30.5 µM (inactive)	> 100 µM (inactive)	68.5 µM (inactive)
Cc1ccc(C)n1-c1ccccc1C1C=Cn2c(=O)oc3c(OC(C)C)c(OC(C)C)c(O)c1c32 (centres undefined)	33.3 µM (inactive)	> 100 µM (inactive)	6.84 µM (inactive)	14.2 µM (inactive)	15.7		7.78 µM (inactive)	27.4 µM (inactive)	> 100 µM (inactive)	8.11 µM (inactive)		54 µM (inactive)	13.9 µM (inactive)	24.9 µM (inactive)	18 µM (inactive)	76.6 µM (inactive)	37.3 µM (inactive)	28.1 µM (inactive)	55.2 µM (inactive)	56 µM (inactive)
Cc1ccccc1OC(C)C(=O)NN1C(=O)CC(=O)N(c2ccccc2)C1=S (centres undefined)	46.3 µM (inactive)	24 µM (inactive)	34 µM (inactive)	54.3 µM (inactive)	51.3		61.4 µM (inactive)	61 µM (inactive)	> 100 µM (inactive)	75.5 µM (inactive)		80.4 µM (inactive)	68.4 µM (inactive)	37.3 µM (inactive)		43.7 µM (inactive)	82.4 µM (inactive)	48.3 µM (inactive)	63 µM (inactive)	> 100 µM (inactive)
NC(=S)Nc1ccc(S(=O)(=O)Nc2ccc(S(N)(=O)=O)cc2)cc1	> 100 µM (inactive)	> 100 µM (inactive)	> 100 µM (inactive)	> 100 µM (inactive)	> 100	> 100 µM (inactive)	> 100 µM (inactive)	> 100 µM (inactive)	> 100 µM (inactive)	> 100 µM (inactive)		> 100 µM (inactive)	> 100 µM (inactive)	> 100 µM (inactive)	> 100 µM (inactive)	> 100 µM (inactive)	> 100 µM (inactive)		> 100 µM (inactive)	
CCOC(=O)Cc1nnc2n(-c3ccccc3)c(=O)c3ccccc3n12	> 100 µM (inactive)	74.8 µM (inactive)	> 100 µM (inactive)	> 100 µM (inactive)	> 100	> 100 µM (inactive)	> 100 µM (inactive)	> 100 µM (inactive)	> 100 µM (inactive)	> 100 µM (inactive)	> 100 µM (inactive)	> 100 µM (inactive)	83.8 µM (inactive)	17.1 µM (inactive)	> 100 µM (inactive)	> 100 µM (inactive)	> 100 µM (inactive)	43.9 µM (inactive)	> 100 µM (inactive)	
CCOC(=O)C(O)(CC1=NC(C(=O)OC)(C(=O)OC)C(c2cccc(C=O)c2)O1)C(=O)OCC (centres undefined)		> 100 µM (inactive)	> 100 µM (inactive)	> 100 µM (inactive)	> 100	> 100 µM (inactive)	> 100 µM (inactive)	> 100 µM (inactive)	> 100 µM (inactive)	> 100 µM (inactive)	> 100 µM (inactive)	> 100 µM (inactive)	> 100 µM (inactive)	> 100 µM (inactive)	> 100 µM (inactive)	> 100 µM (inactive)	> 100 µM (inactive)	> 100 µM (inactive)	> 100 µM (inactive)	
